Ends that are not written are not given here.
Tests used:
[1] = test system: Clavibacter michiganensis ssp. michiganensis; details: LB-medium, about 10^5 CFU/ml, 27°C, 1–2d, OD590 nm; at least two independent replicates
Cladosporium herbarum = details: 2% malt extract medium, 1.5–2×10^3 spores/ml, room temperature, 3d, visual screening; lowest concentration with no visible growth; at least two independent replicates
Pseudomonas corrugata = details: LB-medium, about 10^5 CFU/ml, 27°C, 1–2d, OD590 nm; at least two independent replicates
Xanthomonas vesicatoria = details: LB-medium, about 10^5 CFU/ml, 27°C, 1–2d, OD590 nm; at least two independent replicates
[2] = test system: Pseudomonas syringae pv. syringae; details: LB-medium, about 10^5 CFU/ml, 27°C, 1–2d, OD590 nm; at least two independent replicates
Alternaria alternata = details: 2% malt extract medium, 1.5–2×10^3 spores/ml, room temperature, 3d, OD590 nm; lowest concentration with no visible growth; at least two independent replicates
tested plant pathogens = test: Microdilution assay, activity summarised over several tested plant pathogens; format: cell-based; details: statement over some / the majority of the tested plant pathogens or bacteria
Procedure: In-vitro inhibition assays were performed in sterile flat-bottom 96-well polypropylene-plates (Greiner bio-one, Frickenhausen, Germany). 10 µl (antibacterial assay) or 20 µl (antifungal assay) of each concentration were loaded per well. Fresh bacterial colonies were transferred into LB-medium, grown to an OD600 nm of 0.08–0.1 and diluted 1∶100 with medium. 90 µl of this suspension containing about 10^5 CFU/ml of bacteria were added to each well resulting in final peptide concentrations from 0 to 100 µg/ml. After incubation at 27°C for 1–2d bacterial growth was analyzed by measuring the OD590 nm using a Tecan Genios microplate reader (Crailsheim, Germany).
Spores of plant pathogenic fungi were collected by washing sporulating cultures with water. Spore concentration was determined by haematocytometer and adjusted to 1.5–2×10^3 spores/ml in 2% malt extract medium. 80 µl of fungal spores were added per well resulting in final peptide concentrations from 0 to 100 µg/ml. After incubation at room temperature for 3d on a rotary shaker (300 rpm), fungal growth was determined by measuring the OD590 nm (Alternaria sp.) or by visual screening of the plates (Botrytis sp., Cladosporium sp.). The lowest peptide concentration, where no visible microbial growth could be detected, was determined for each organism-peptide combination and referred to as the minimal inhibitory concentration (MIC). At least two independent replicates were performed.

Fusarium solani = details: 2% malt extract medium, room temperature, 3d; concentration range 1 to 64 µg/ml
human erythrocytes = details: Table S5; ref Zasloff, 1987; cited from earlier work
Botrytis cinerea = details: 2% malt extract medium, 1.5–2×10^3 spores/ml, room temperature, 3d, visual screening; lowest concentration with no visible growth; at least two independent replicates
[3] = test system: Pseudomonas syringae pv. tomato; details: LB-medium, about 10^5 CFU/ml, 27°C, 1–2d, OD590 nm; at least two independent replicates
[4] = test system: Pectobacterium carotovorum ssp. carotovorum; details: LB-medium, about 10^5 CFU/ml, 27°C, 1–2d, OD590 nm; at least two independent replicates
[5] = test system: Arabidopsis mesophyll protoplasts; test: Phytotoxicity on plant protoplasts; format: cell-based; details: concentrations up to 100 µg/ml
Procedure: Phytotoxicity was measured on Arabidopsis mesophyll protoplasts prepared from leaves as described in [80]. 80 µl protoplast suspension containing about 5000 protoplasts were incubated with 20 µl peptide solution. Final peptide concentrations were 0, 10, 100 and 200 µg/ml. The phytotoxic effect of antimicrobial peptides was observed after 1 h with a light microscope. Hints to cell death are loss of spherical shape, chloroplast release and/or agglomeration of protoplasts.

A. alternata = test: Peptide spraying on inoculated tomato leaves, fungal growth; format: in vivo, A. alternata on tomato (Microtom); details: 50 µg/ml peptide sprayed 22 h after inoculation (10^4 spores/ml); fungal DNA by RT-PCR
Procedure: (§1) To determine antifungal activity of AMPs four week old tomato plants (Microtom) were inoculated with fungal spores using an aerosol can. Spores were harvested by washing sporulating plate-grown fungi (A. alternata and C. herbarum) with 62.5 mM KH2PO4 (pH 6.0) supplemented with 5.5 mM glucose and 0.1% Tween-20. One leaf per plant (three plants per treatment) was sprayed adaxial and abaxial with 500 µl spore suspension (10^4 spores/ml). In this way approximately 100 µl spore suspension was applied directly onto the plant surface. Plants were covered with a plastic cap to guarantee high humidity and incubated at 20°C. After two hours the T0 tissue sample was collected. AMPs were sprayed onto the leaf surface 22 h after inoculation. Leaves were harvested 24 h and 48 h after peptide treatment. Frozen material was homogenized in liquid nitrogen and fungal DNA was isolated. Quantification of fungal DNA content was done by qRT-PCR amplifying the nuclear encoded ribosomal internal transcribed spacer (ITS) regions. ITS1-forward and ITS4-reverse primers were used at an annealing temperature of 60°C: For A. alternata: ITS1-Alt-for, 5′-[…]-3′ and ITS4_Alt-rev, 5′-[…]-3′ and for C. herbarum: ITS1-Cla-for 5′-[…]-3′ and ITS4-Cla-rev, 5′-[…]-3′ (synthesized by metabion, Munich, Germany). […] Differences between the mean values were analysed using an unpaired t-test analysis of variance.

C. herbarum = test: as above; format: in vivo, C. herbarum on tomato (Microtom); details: 5 µg/ml peptide sprayed 22 h after inoculation (10^4 spores/ml); fungal DNA by RT-PCR
Procedure: as §1

Row | Substance | MIC [1] | MIC (Cladosporium herbarum) | MIC (Pseudomonas corrugata) | MIC (Xanthomonas vesicatoria) | MIC [2] | MIC (Alternaria alternata) | active concentrations (MIC) (tested plant pathogens) | MIC (Fusarium solani) | Hemolytic activity (human erythrocytes) | MIC (Botrytis cinerea) | MIC [3] | MIC [4] | phytotoxicity (in words) [5] | growth inhibition on tomato leaves (A. alternata) | growth inhibition on tomato leaves (C. herbarum)
1 | GIGKFLHSAKKFGKAFVGEIMNS [Magainin II, reference compound] | 32 µg/mL | 64 µg/mL | 32 µg/mL | 8 µg/mL | > 64 µg/mL | > 64 µg/mL | 1 to 8 µg/mL | 2 µg/mL | 5 µg/mL | 64 µg/mL | 32 µg/mL | > 64 µg/mL | – | – | –
2 | LRFLKKILKHLF-NH2 [SP10-D] | 5 µg/mL | 5 µg/mL | – | 2 µg/mL | – | 5 µg/mL | – | – | – | 10 µg/mL | – | > 40 µg/mL | no phytotoxicity | around 70% | –
3 | KRRLIARILRLAARALVKKR-NH2 [SP13-D, D-amino acid modified SP13] | 10 µg/mL | 5 µg/mL | 40 µg/mL | 2 µg/mL | – | 20 µg/mL | – | – | – | > 40 µg/mL | 1 µg/mL | > 40 µg/mL | no phytotoxicity | – | More than 80%

Reference: publication PMC3741113, “De-Novo Design of Antimicrobial Peptides for Plant Protection” (PLoS ONE, 2013)
